Experiment [1] concerns Charles River male albino mice. The experiment in a line: Writhing Assay (PBQ-induced writhing, analgesic activity). The following applies: Intragastric; for responders at 30 mg/kg / ED50: Mus musculus, po; for responders at 30 mg/kg: 25 min, read-out: number of mice out of nine or ten in which a test compound produced analgesia (converted); for ED50: PBQ writhing, mice, maximum likelihood function, read-out: calculated ED50 value (dose which produced analgesia in 50% of the mice). Type of experiment: in vivo. An excerpt:
The Writhing Assay is one of the most widely-used experimental procedures for measuring the analgesic activity of different narcotic and nonnarcotic analgesic agents, and involves the continuous, chemically-induced pain of visceral origin to an animal, such as a mouse or rat. [Gyires et al., Arch. int. Pharmacodyn, 267, 131-140 (1984); […] al., Fed. Proc., 15, 494 (1956); Koster et al., Fed. Proc., 18, 412 (1959); and Witken et al., J. Pharmacol. exp. Ther., 133, 400-408 (1961).] Chemicals which may be used to induce this pain include phenylbenzoquinone (PBQ) and acetic acid. As a result of the chemical irritation to the animal, a characteristic stretching and writhing of the animal (dorsiflexion of the animal's back, extension of its hindlimbs and the strong contraction of its abdominal musculature) will generally occur. […] Drugs which reduce the number of writhes of the animal appear to restore the normal nociceptive threshold of the animal. Charles River male albino mice, weighing 20 to 30 grams were used in this assay. Twenty-five minutes after intragastric administration to nine or ten mice of 30 mg per kilogram of body weight of a compound of the present invention ("test compound"), […] of body weight of a 0.025% w/v solution of PBQ was injected intraperitoneally into each mouse. Ten mice which were given saline in place of a test compound of the invention were used as a control group. Five minutes later, each mouse was individually placed into a glass beaker for observation, and the number of writhes occurring during the following ten-minute period was counted. A test compound was considered to have produced analgesia in a mouse if, in accordance with the conditions set forth above, and under the test criteria employed for this assay, after the administration of 30 mg per kilogram of body weight of a compound of the present invention to the mouse, the number of writhes elicited by a mouse injected with PBQ was equal to, or less than, one-half the median number of writhes recorded for the saline-treated control group of mice that day, as described by Taber in "Predictive Value of Analgesic Assays in Mice and Rats," Advances in Biochemical Psychopharmacology, 8, 191 (1974). […] If this initial screening dose of the test compound produced analgesia in seven of nine or ten mice, then the effect of additional doses of the test compound on the writhing response was evaluated, and then the ED50 value (that dose of a compound which produced analgesia in 50% of the mice to which the compound was administered) was generally calculated. A maximum likelihood function was used to determine the ED50 value. (The slopes of the dose-response curves for all test compounds analyzed were compared as described by Tallarida and Murray, Manual of Pharmacologic Calculations, Page 11 (Springer Verlag, New York, 1981)). The results for the particular compounds of the present invention analyzed in this assay, and discussed in the examples identified below which correspond thereto, are presented in Table 1 hereinbelow. The compounds of the present invention which were tested in this assay, and for which results are presented in Table 1, correspond to the particular examples specified in Table 1. The fractions indicate the number of mice out of nine or ten in which a test compound produced analgesia, and the whole numbers are the calculated ED50 values.

For experiment [2], the system named is prostaglandin E2 -induced contractions of segments of guinea pig ileum. The experiment in a line: Prostaglandin (PGE) Antagonism Assay. Type of experiment: cell-based. The following applies: dose ratio of prostaglandin E2 EC50 doses with/without test compound, initial concentration 3 micromolar. The procedure:
In order to determine the effectiveness of several of the compounds of the present invention ("test compounds") as prostaglandin E2 antagonists,a prostaglandin antagonism assay was conducted, as described below, to determine the ability of these compounds to inhibit prostaglandin E2 -induced contractions of segments of guinea pig ileum. […] Male albino guinea pigs weighing 200 to 500 grams were sacrificed by cervical dislocation. The ilea were then quickly removed from the guinea pigs and placed in a modified Tyrode solution, a solution which is known to those skilled in the art, containing one-half of the usual amount of magnesium ions. Segments of ileum about 2 cm long were then cut and mounted in a 10-mL tissue bath containing the modified Tyrode solution. The solution was maintained at 37° C. and aerated with a gaseous mixture of 95% oxygen and 5% carbon dioxide. Data for a control prostaglandin E2 dose response curve plotting concentration of prostaglandin E2 versus the intensity of contractions, detected isotonically, was then obtained by experimentally adjusting the dose of the prostaglandin E2 being injected into the tissue bath, in a manner known by those of skill in the art. Solutions or suspensions containing an initial concentration (3 micromolar) of a test compound in modified Tyrode solution ("test solutions/suspensions") were then separately substituted for the control bath solution. Each test solution/suspension was then kept in constant contact with the ileum tissue, except for brief periods to drain the bath in preparation for rinsing with fresh test solution/suspension. A second prostaglandin E2 dose response curve was then generated for prostaglandin E2 in the presence of a test compound. A dose ratio (DR) of EC50 doses was then calculated from the results of each test in a manner known by those of skill in the art. A control dose response curve (DRC) is produced in isolated segments of guinea pig ileum mounted in an automated apparatus with six concentrations of prostaglandin E2. A solution or suspension of test compound is substituted for the control bathing solution and is incubated for thirty minutes. An additional prostaglandin E2 dose response curve is produced in the presence of the test compound. A dose ratio is calculated from the EC50 values obtained from duplicate replications on each concentration of the test compound. […] The results of this prostaglandin antagonism assay are presented in Table 2 below in terms of their dose ratio. The compounds of the present invention which were tested in this assay, and for which results are presented in Table 2, correspond to the particular examples specified in Table 2.

Where [3] appears, read: 30 mg per kilogram of body weight 25 min before PBQ i.p., writhes equal to or less than one-half the control median.

We go through 20 compounds from patent US5354747A, “2-, 3-, 4-, 5-, 6-, 7-, 8-, 9- and/or 10-substituted dibenzoxazepine and dibenzthiazepine compounds, pharmaceutical compositions and methods of use” (G. D. Searle & Co., priority 1993, dated 1994).

Counter-ions that a name gives are not always drawn.

For “8-chloro-10,11-dihydro-10-[[4-(2-pyridinyl)-1-piperazinyl]carbonyl]dibenz[b,f][1,4]oxazepine, monohydrochloride [Example 11]”, in experiment [1] (setting [3]), the “number of mice out of nine or ten in which a test compound produced analgesia” value is 1/10.

As to `O=C(C1CCN(C(=O)N2Cc3ccccc3Oc3ccc(Cl)cc32)CC1)N(CCO)CCO` [Example 3, 1-[(8-chlorodibenz[b,f][1,4]oxazepin-10(11H)yl)carbonyl]-N,N-bis(2-hydroxyethyl)-4-piperidinecarboxamide], the responders at 30 mg/kg in experiment [1] (setting [3]) is 20%. For the same compound, the “Dose Ratio” value in experiment [2] is listed as 1.5.

Consider `O=C(N1CCN2CCCCC2C1)N1Cc2ccccc2Oc2ccc(Cl)cc21` (centres unmarked) [Example 5, 8-chloro-10,11-dihydro-10-[(octahydro-2H-pyrido[1,2,-a]pyrazin-2-yl)carbonyl]dibenz[b,f][1,4]oxazepine hydrochloride], for which the responders at 30 mg/kg in experiment [1] (setting [3]) is 40%. Further, the “Dose Ratio” value in experiment [2] came to 2.4.

The term ED50 denotes the dose at which the effect has come halfway, by size or by number of responders. Regarding `Cl.O=C(N1CCN(Cc2ccccc2)CC1)N1Cc2ccccc2Oc2ccc(Cl)cc21` [Example 7, 8-chloro-10,11-dihydro-10-[[4-(phenylmethyl)-1-piperazinyl]carbonyl]dibenz[b,f][1,4]oxazepine, monohydrochloride], in experiment [1], the 50% effective dose (ED50) is 6.8 mg/kg. In experiment [2], the “Dose Ratio” value was 5.1.

Consider `CCCCN1CCN(C(=O)N2Cc3ccccc3Oc3ccc(Cl)cc32)CC1.Cl` [Example 9, 10-[(4-butyl-1-piperazinyl)carbonyl]-8-chloro-10,11-dihydrodibenz[b,f][1,4]oxazepine, monohydrochloride], for which the ED50 in experiment [1] was 9.7 mg/kg. Also, the “Dose Ratio” value in experiment [2] stood at 1.4.

For `Cl.O=C(N1CCC(N2CCCCC2)CC1)N1Cc2ccccc2Oc2ccc(Cl)cc21` [Example 13, 10-([1,4'-bipiperidin]-1'-ylcarbonyl)-8-chloro-10,11-dihydrodibenz[b,f][1,4]oxazepine, hydrochloride], the responders at 30 mg/kg in experiment [1] (setting [3]) was 90%. The “Dose Ratio” value in experiment [2] turned out to be 1.6.

On to `CCCCCCCCCCN1CCN(C(=O)N2Cc3ccccc3Oc3ccc(Cl)cc32)CC1.Cl` [Example 15, 8-chloro-10-[(4-decyl-1-piperazinyl)carbonyl]-10,11-dihydrodibenz[b,f][1,4]oxazepine, monohydrochloride], for which the ED50 in experiment [1] is 6.4 mg/kg. Moreover, the “Dose Ratio” value in experiment [2] turned out to be 2.1.

For the compound `CCCN1CCN(C(=O)N2Cc3ccccc3Oc3ccc(Cl)cc32)CC1.Cl` [Example 17, 8-chloro-10,11-dihydro-10-[(4-propyl-1-piperazinyl)carbonyl]dibenz[b,f][1,4]oxazepine, hydrochloride], the ED50 in experiment [1] was 5.1 mg/kg. In addition, the “Dose Ratio” value in experiment [2] is listed as 3.1.

In the case of `CCN1CCN(C(=O)N2Cc3ccccc3Oc3ccc(Cl)cc32)CC1.Cl` [Example 19, 8-chloro-10-[(4-ethyl-1-piperazinyl)carbonyl]-10,11-dihydrodibenz[b,f][1,4]oxazepine, hydrochloride], the responders at 30 mg/kg in experiment [1] (setting [3]) was 22.2%. Besides, the “Dose Ratio” value in experiment [2] was determined as 6.0.

For the compound `CC(C)(C)OC(=O)N1CCN(C(=O)N2Cc3ccccc3Oc3ccc(Cl)cc32)CC1` [Example 20, 1,1-dimethylethyl 4-[(8-chlorodibenz[b,f][1,4]oxazepin-10(11H)-yl)carbonyl]-1-piperazinecarboxylate], the responders at 30 mg/kg in experiment [1] (setting [3]) is 40%. Moreover, the “Dose Ratio” value in experiment [2] is reported as 8.0.

Turning to `CC(C)N1CCN(C(=O)N2Cc3ccccc3Oc3ccc(Cl)cc32)CC1.Cl` [Example 22, 8-chloro-10,11-dihydro-10-[[4-(1-methylethyl]-1-piperazinyl]carbonyl]dibenz[b,f][1,4]oxazepine, hydrochloride], the responders at 30 mg/kg in experiment [1] (setting [3]) is 30%. The “Dose Ratio” value in experiment [2] amounted to 3.0.

On to `CCCN1CCCN(C(=O)N2Cc3ccccc3Oc3ccc(Cl)cc32)CC1` [Example 24, monohydrochloride], for which the ED50 in experiment [1] was 14.7 mg/kg. Besides, the “Dose Ratio” value in experiment [2] is 11.9.

As to `O=C(N1CCNCC1)N1Cc2ccccc2Oc2ccc(Cl)cc21` [Example 25, 8-chloro-10,11-dihydro-10-(1-piperazinylcarbonyl)dibenz[b,f][1,4]oxazepine, monohydrochloride], in experiment [1] (setting [3]), the responders at 30 mg/kg is 50%. In addition, in experiment [2], the “Dose Ratio” value came out at 1.6.

Turning to `O=C(N1CCC(N2CCCC2)CC1)N1Cc2ccccc2Oc2ccc(Cl)cc21` [Example 34, 8-chloro-10,11-dihydro-10-[[4-(1-pyrrolidinyl)-1-piperidinyl]carbonyl]dibenz[b,f][1,4]oxazepine], in experiment [1] (setting [3]), the responders at 30 mg/kg was 70%.

`Cl.O=C(N1CCC(N2CCCC2)CC1)N1Cc2ccccc2Oc2ccc(Cl)cc21` [Example 35, 8-chloro-10,11-dihydro-10-[[4-(1-pyrrolidinyl)-1-piperidinyl]carbonyl]dibenz[b,f][1,4]oxazepine, hydrochloride]: the “Dose Ratio” value in experiment [2] came out at 1.0.

Take `O=C(c1ccco1)N1CCN(C(=O)N2Cc3ccccc3Oc3ccc(Cl)cc32)CC1` [Example 38, 1-[(8-chlorodibenz[b,f][1,4]oxazepin-10(11H)-yl)carbonyl]-4-(2-furanylcarbonyl)piperazine]: the responders at 30 mg/kg in experiment [1] (setting [3]) was 10%.

As to `O=C(N1Cc2ccccc2Oc2ccc(Cl)cc21)N1CCCCC1CCN1CCCC1` (centres unmarked) [Example 49, 8-chloro-10,11-dihydro-10-[[2-[2-(1-pyrrolidinyl)ethyl]-1-piperidinyl]carbonyl]dibenz[b,f][1,4]oxazepine, hydrochloride], the responders at 30 mg/kg in experiment [1] (setting [3]) was 20%.

For `CCOC(=O)C1CN(C(=O)N2Cc3ccccc3Oc3ccc(Cl)cc32)CCN1c1ccccc1` (centres unmarked) [Example 50, ethyl 4-[(8-chlorodibenz[b,f][1,4]oxazepin-10(11H)-yl)carbonyl]-1-phenyl-2-piperazinecarboxylate], the “Dose Ratio” value in experiment [2] is recorded as 2.7.

Consider `O=C(Cc1ccncc1)N1CCN(C(=O)N2Cc3ccccc3Oc3ccc(Cl)cc32)CC1` [Example 79, 1-[(8-Chlorodibenz[b,f][1,4]oxozepin-10(11H)-yl)carbonyl]-4-[1-oxo-2(4-pyridinyl)-ethyl]piperazine, monohydrochloride, monohydrate], for which the “Dose Ratio” value in experiment [2] is given as 10.

With `Cl.O=C(Cc1ccncc1)N1CCCN(C(=O)N2Cc3ccccc3Oc3ccc(Cl)cc32)CC1` [Example 81, 1-[(8-chlorodibenz[b,f][1,4]oxazepin-10(11H)-yl)carbonyl]hexahydro-4-(4-pyridinylacetyl)-1H-1,4-diazepine, monohydrochloride], the “Dose Ratio” value in experiment [2] is given as 32.
